In patent publication US20230293517A1, “ANTAGONIST COMPOUNDS” (AdoRx Therapeutics Limited, priority 2020, published 2023):
Read-outs that look alike come from different tables or passages of the source.

Assays:
[1] = biological target: human Adenosine A1 receptor (Homo sapiens (Human), UniProt P30542); assay: Adenosine receptor TR-FRET binding assay (A1); conditions: inhibition of binding of 100 nM CA200645, CHO cell membranes
Method in brief: (§1)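 CHO membranes, Tb-labelled hA1/hA2a/hA2b/hA3; tracer CA200645 at 100 nM (A1, A2a, A3) or 30 nM (A2b); buffer with saponin, 1% DMSO, pluronic; 2 h RT. NSB with 10 μM XAC. Read TR-FRET (ex 337, em 620/665 nm); IC50 → Ki via Cheng–Prusoff.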

[2] = biological target: human Adenosine A2b receptor (Homo sapiens (Human), UniProt P29275); assay: Adenosine receptor TR-FRET binding assay (A2b)
Method in brief: as §1

human PBMCs = assay: CD3/CD28 stimulated IL-2 release NECA reversal assay in human PBMCs; format: cell-based; conditions: PBMC, 1 uM NECA, 24 hours, IL-2 in culture supernatant
Method in brief: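 PBMCs from citrated healthy-donor blood plated at 50,000 cells/well on 1 ug/ml CD3 antibody with 1 ug/ml CD28 antibody, 1 uM NECA and 0.003-10 μM antagonist (final), 24 h at 37° C. Supernatant IL-2 measured by MSD immunoassay; % inhibition set against no-NECA control wells as 100%.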

[3] = tested on: CD8+T cells in human whole blood; assay: Measurement of pCREB in CD8+T cells in human whole blood; format: cell-based; conditions: 3 μM NECA, rolipram
Method in brief: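 Heparinised human whole blood pre-incubated 20 min at 37 °C with serially diluted A2a antagonists plus rolipram, then stimulated 60 min with 3 μM NECA (final). After fixation and red-cell lysis, white cells were permeabilized and stained for phospho-CREB and CD8; pCREB in CD8+ T cells measured by flow cytometry.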

[4] = biological target: human Adenosine A2a receptor (Homo sapiens (Human), UniProt P29274); assay: Adenosine receptor TR-FRET binding assay (A2a); conditions: inhibition of binding of 100 nM CA200645, CHO cell membranes
Method in brief: as §1

[5] = biological target: human Adenosine A3 receptor (Homo sapiens (Human), UniProt P0DMS8); assay: Adenosine receptor TR-FRET binding assay (A3); conditions: inhibition of binding of 100 nM CA200645, CHO cell membranes
Method in brief: as §1

[6] = TR-FRET, inhibition of binding of 30 nM CA200645, CHO cell membranes

human Adenosine A2a receptor, sequence (P29274 whole entry): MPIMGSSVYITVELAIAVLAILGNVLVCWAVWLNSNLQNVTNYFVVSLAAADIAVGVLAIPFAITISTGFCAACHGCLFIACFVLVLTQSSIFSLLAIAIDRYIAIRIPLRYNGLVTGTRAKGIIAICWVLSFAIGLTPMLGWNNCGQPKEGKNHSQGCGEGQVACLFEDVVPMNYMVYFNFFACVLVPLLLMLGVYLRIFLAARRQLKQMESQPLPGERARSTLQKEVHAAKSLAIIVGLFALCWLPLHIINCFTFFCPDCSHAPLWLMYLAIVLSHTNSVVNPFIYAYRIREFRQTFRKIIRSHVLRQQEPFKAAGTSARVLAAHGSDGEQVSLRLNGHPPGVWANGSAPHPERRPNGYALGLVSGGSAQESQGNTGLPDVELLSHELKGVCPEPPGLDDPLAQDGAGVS
human Adenosine A3 receptor, sequence (P0DMS8 whole entry): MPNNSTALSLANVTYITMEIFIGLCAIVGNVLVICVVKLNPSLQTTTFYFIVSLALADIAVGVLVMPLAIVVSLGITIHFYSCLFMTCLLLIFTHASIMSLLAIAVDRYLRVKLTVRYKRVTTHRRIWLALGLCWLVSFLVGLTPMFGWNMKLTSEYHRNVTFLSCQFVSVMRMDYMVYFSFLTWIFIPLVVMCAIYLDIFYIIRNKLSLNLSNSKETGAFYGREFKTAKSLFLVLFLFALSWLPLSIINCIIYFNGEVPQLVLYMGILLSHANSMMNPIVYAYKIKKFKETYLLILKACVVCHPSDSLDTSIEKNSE
human Adenosine A1 receptor, sequence (P30542 whole entry): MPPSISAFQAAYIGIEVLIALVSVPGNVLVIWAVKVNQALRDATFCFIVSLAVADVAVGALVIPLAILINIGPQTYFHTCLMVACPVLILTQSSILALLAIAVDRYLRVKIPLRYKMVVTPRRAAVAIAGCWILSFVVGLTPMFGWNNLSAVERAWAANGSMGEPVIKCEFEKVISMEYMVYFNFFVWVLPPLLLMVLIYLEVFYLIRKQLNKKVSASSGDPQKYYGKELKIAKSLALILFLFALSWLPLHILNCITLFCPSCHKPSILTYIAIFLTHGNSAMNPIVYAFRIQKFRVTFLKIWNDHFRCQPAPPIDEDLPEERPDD
human Adenosine A2b receptor, sequence (P29275 whole entry): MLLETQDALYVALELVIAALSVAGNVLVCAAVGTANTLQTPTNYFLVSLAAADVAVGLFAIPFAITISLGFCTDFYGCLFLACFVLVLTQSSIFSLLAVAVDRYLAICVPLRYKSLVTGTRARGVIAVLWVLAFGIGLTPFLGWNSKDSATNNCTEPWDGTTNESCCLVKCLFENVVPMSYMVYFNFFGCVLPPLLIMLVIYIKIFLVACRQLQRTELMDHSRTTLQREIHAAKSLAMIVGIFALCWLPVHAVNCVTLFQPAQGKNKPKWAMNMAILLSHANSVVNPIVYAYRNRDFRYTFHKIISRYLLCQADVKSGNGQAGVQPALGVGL

Structure (SMILES)	Ki [1] [nM]	Ki [2, 6] [nM]	IC50 (human PBMCs) [nM]	IC50 [3] [nM]	Ki [4] [nM]	Ki [5] [nM]	Ki [2] [nM]
Cc1cc(-c2sc(NC(=O)N3CCN4CCS(=O)(=O)CC4C3)nc2-c2cccc(C#N)c2)cc(C)n1 (stereo not drawn) [Example 6.14, N-[4-(3-Cyanophenyl)-5-(2,6-dimethyl-4-pyridyl)thiazol-2-yl]-2,2-dioxo-3,4,6,7,9,9a-hexahydro-1H-pyrazino[2,1-c][1,4]thiazine-8-carboxamide]	167	2.6	5.3	50	0.6	772	
Cc1cc(-c2sc(NC(=O)N3CCC4(CC3)CNC(=O)N4)nc2-c2cccc(C#N)c2)cc(C)n1 [Example 6.11, N-[4-(3-Cyanophenyl)-5-(2,6-dimethyl-4-pyridyl)thiazol-2-yl]-2-oxo-1,3,8-triazaspiro[4.5]decane-8-carboxamide]	42	2.6	5.2	50	0.39	319	
Cc1cc(-c2sc(NC(=O)N3CC4(CCNC4=O)C3)nc2-c2cccc(C#N)c2)cc(C)n1 [Example 6.59, N-[4-(3-Cyanophenyl)-5-(2,6-dimethyl-4-pyridyl)thiazol-2-yl]-5-oxo-2,6-diazaspiro[3.4]octane-2-carboxamide]	128	2.2	5.9	100	1.47	184	
Cc1cc(-c2sc(NC(=O)N3CCOC[C@H]3CO)nc2-c2cccc(C#N)c2)cc(C)n1 [Example 6.88, (3R)-N-[4-(3-Cyanophenyl)-5-(2,6-dimethyl-4-pyridyl)thiazol-2-yl]-3-(hydroxymethyl)morpholine-4-carboxamide]	65	8	7.8	480	1.9	385	
Cc1cc(-c2sc(NC(=O)N3CCC(C)(C#N)CC3)nc2-c2cccc(C#N)c2C)cc(C)n1 [Example 18, 4-Cyano-N-[4-(3-cyano-2-methyl-phenyl)-5-(2,6-dimethyl-4-pyridyl)thiazol-2-yl]-4-methyl-piperidine-1-carboxamide]	248	3.4	7.2	410	0.39	852	
Cc1cc(-c2sc(NC(=O)N3CC4(C3)CC(C)(O)C4)nc2-c2cccc(C#N)c2)cc(C)n1 [Example 6.44, N-[4-(3-Cyanophenyl)-5-(2,6-dimethyl-4-pyridyl)thiazol-2-yl]-6-hydroxy-6-methyl-2-azaspiro[3.3]heptane-2-carboxamide]	151	2.4	3.1	100	0.4	299	
Cc1cc(-c2sc(NC(=O)N3CCC(C)(O)CC3)nc2-c2cccc(C#N)c2)cc(Cl)n1 [Example 3.7]	14	1.1	3.3	290	0.2	382	
Cc1cc(-c2sc(NC(=O)N3CCN(C)C(=O)C3)nc2-c2cccc(C#N)c2)cc(C)n1 [Example 4.15, N-[4-(3-Cyanophenyl)-5-(2,6-dimethyl-4-pyridyl)thiazol-2-yl]-4-methyl-3-oxo-piperazine-1-carboxamide]	91	1.4	10.3	650	2.3	339	
Cc1cc(-c2sc(NC(=O)N3CCN[C@@H](C)C3)nc2-c2cccc(C#N)c2)cc(Cl)n1 [Example 5.4, (3S)-N-[5-(2-Chloro-6-methyl-4-pyridyl)-4-(3-cyanophenyl)thiazol-2-yl]-3-methyl-piperazine-1-carboxamide]	111		71.8	1950	1.03	33	5.8
Cc1cc(-c2sc(NC(=O)N3CC[C@H](C(C)(C)O)C3)nc2-c2cccc(C#N)c2)cc(C)n1 [Example 6.48, (3S)-N-[4-(3-Cyanophenyl)-5-(2,6-dimethyl-4-pyridyl)thiazol-2-yl]-3-(1-hydroxy-1-methyl-ethyl)pyrrolidine-1-carboxamide]	96	1.7	3.7	140	1.11	245	
